From patent US9187474B2, “Raf inhibitor compounds” (Deciphera Pharmaceuticals, LLC, priority 2012, dated 2015)
Read-outs that look alike come from different tables or passages of the source.

Key:
[1] = tested on: phospho-ERK in HCT-116 cells; assay: HCT-116 cell pERK assay (AlphaScreen SureFire); type: cell-based; settings: for IC50: Homo sapiens, HCT-116 cells, B-Raf wild type, K-Ras mutation, 4 hours, read-out: IC50 reduction of phospho-ERK signal
Protocol: Examples of Formula I are tested against HCT-116 cells harboring wild type B-Raf and K-Ras mutation. The phospho-ERK activities are evaluated as described below.
HCT-116 cells (catalog #CCL-247) are obtained from the American Type Culture Collection (ATCC, Manassas, Va.). Briefly, cells are grown in McCoy's 5A supplemented with 10% characterized fetal bovine serum (Invitrogen, Carlsbad, Calif.), and 1% Penicillin/Streptomycin/L-Glutamine at 37 degrees Celsius, 5% CO2, and 95% humidity. Cells are allowed to expand until reaching 75-90% confluency at which point they are subcultured or harvested for assay use. HCT-116 cells suspended in complete media are added to 384-well tissue culture treated plates (3×10^5 cells/mL; 7,500 cells per well). The cells are incubated overnight at 37 degrees Celsius, 5% CO2, and 95% humidity. Next, test compound or DMSO diluted in complete media is added to the wells (0.25% final DMSO concentration). The plates are then incubated for 4 hours at 37 degrees Celsius, 5% CO2, and 95% humidity. Following compound incubation, the cells are lysed at 4° C. for 20 minutes with shaking Cell lysates are centrifuged and the supernatant is transferred to a new plate. An aliquot of each lysate is transferred to a white 384-well assay plate. Using the AlphaScreen SureFire pERK kit (Perkin-Elmer, Waltham, Mass.), an acceptor bead mixture is added to each well and incubated for 2 h at room temperature in the dark. A donor bead mixture is then added to each well and incubated for 2 h at room temperature in the dark. Plates are read using a Synergy2 plate reader (Biotek, Winooski, Vt.) in Plate Mode with Timing Control. Read: (F)1: excitation: 680/30 nm, emission: Plug. 2: Excitation: Plug, emission: 570/100 nm. Top mirror 635 nm. Data is analyzed using Prism software (Graphpad, San Diego, Calif.) to calculate IC50 values and Excel software (Microsoft, Redmond, Wash.) to calculate stimulation compared to control.

[2] = tested on: phospho-ERK in A375 (B-Raf V600E) xenograft; assay: A375 mouse xenograft pharmacodynamic assay (tumor pERK by ELISA); type: in vivo, mice; settings: A-375, 20 mg/kg oral, 2 h post dose, vs vehicle, read-out: Measured pERK inhibition 2 h post dose
Protocol: To evaluate the in vivo pharmacodynamic (PD) effects of compounds of Formula I, an A375 (B-Raf V600E) xenograft model is employed. Briefly, 10×10^6 A375 tumor cells (ATCC) are prepared in a 1:1 matrigel mix (0.2 mL total volume) and implanted by subcutaneous injection in hind leg of nude female mice. A total of 4 mice each for each dosing group are employed. Treatment is initiated with oral administration (gavage) of test compound or vehicle (20% captisol, 25 mM phosphate, pH2.0) in 0.2 mL volume when average tumor size reaches approximately 300 mg. After a fixed time interval, the tumors are harvested and the phospho-ERK levels are measured by ELISA (Enzyme-linked immunosorbent assay). Treated groups are compared to the vehicle control group to calculate % inhibition.

A375res cells [3] = assay: Proliferation assay in vemurafenib-resistant A375res melanoma cells; settings: for IC50: Homo sapiens, 72 h
Excerpt: (§6) A vemurafenib-resistant cell line is generated by chronic treatment of the human melanoma cell line A375 (ATCC) harboring the B-Raf V600E mutation with increasing concentrations PLX4720.

A375 xenograft tumor = assay: A375 mouse xenograft efficacy model; type: in vivo, mice; settings: oral, 21 days
Protocol: (§1) To further evaluate in vivo activity of compounds of Formula I, an A375 xenograft tumor model is utilized. Briefly, 10×10^6 cells in a 1:1 matrigel mix (0.2 mL total volume) are implanted by subcutaneous injection in the hind leg of nude female mice. A total of 8-10 mice in each group are used. Treatment is initiated with oral administration (gavage) of a test compound or vehicle (20% captisol, 25 mM phosphate, pH2.0) in 0.2 mL volume when tumor size reaches approximately 300-500 mg. Test compound is orally dosed twice or thrice a day for 21 days. Tumor growth and body weight are monitored over time to evaluate efficacy and signs of toxicity. Bidimensional measurements of tumors are performed twice a week and tumor volumes are calculated based on the following formula: (Tumor Volume)=[(L)×(W^2)×(π/6)] where L is mid-axis length and W is mid-axis width. Tumor volume data are transformed to a log scale to equalize variance across time and treatment groups. The log volume data are analyzed with a two-way repeated measures analysis of variance by time and treatment using the MIXED procedures in SAS software (version 8.2). The correlation model for the repeated measures is spatial power. Treated groups are compared to the control group at each time point. The MIXED procedure is also used separately for each treatment group to calculate adjusted means and standard errors at each time point. Both analyses account for the autocorrelation within each animal and the loss of data that occurs when animals with large tumors are removed from the study early. The adjusted means and standard errors are plotted for each treatment group versus time.

[4] = Body weight in A375 mouse xenograft efficacy model; type: in vivo, mice; settings: oral, 21 days
Protocol: as §1

A375res cells [5] = tested on: A375res cells
Excerpt: as §6

A375 cells = assay: A375 cell proliferation assay (72 hour); type: cell-based; settings: Homo sapiens, A-375, parental A375 cells
Protocol: A375 cells (catalog #CRL-1619) are obtained from the American Type Culture Collection (ATCC, Manassas, Va.). Briefly, cells are grown in DMEM High Glucose supplemented with 10% characterized fetal bovine serum (Invitrogen, Carlsbad, Calif.) and 1% Penicillin/Streptomycin/L-Glutamine at 37 degrees Celsius, 5% CO2, and 95% humidity. Cells are allowed to expand until reaching 70-95% confluency at which point they are subcultured or harvested for assay use. A serial dilution of test compound is dispensed into a 384-well black clear bottom plate in triplicate. Six hundred twenty-five cells are added per well in 50 μL complete growth medium in the 384-well plate. Plates are incubated for 67 hours at 37 degrees Celsius, 5% CO2, and 95% humidity. […] Plates are read on a Synergy2 reader (Biotek, Winooski, Vt.) using an excitation of 540 nm and an emission of 600 nm. Data is analyzed using Prism software (Graphpad, San Diego, Calif.) to calculate IC50 values.

[6] = tested on: A-Raf, B-RafV600E and C-Raf; assay: ActivX KiNativ A375 whole cell lysate assay, summary over Raf isoforms; type: binding, human; settings: A375 cells; summary of Table 1
Protocol: (§2) To further evaluate the enzymatic pan Raf activities of test compounds, they are evaluated in a KiNativ assay developed and carried out by ActivX Biosciences Inc. using whole cell lysates of A375 cells. A375 cells are human melanoma cells with a B-Raf V600E mutation.
Sample preparation: A375 cells from ATCC are lysed by sonication in commercially available lysis buffer, cleared by centrifugation, and the resulting supernatant gel filtered into a commercially available kinase reaction buffer containing 20 mM MnCl2. Final protein concentration of lysates are 10 mg/mL. 5 μL of each test compound is added from 100 μM, 10 μM, 1 μM, or 0.1 μM stock solutions in DMSO to 500 uL of lysate in duplicate for final concentrations of 1 μM, 0.1 μM, 0.01 μM, and 0.001 μM. 5 μL of DMSO is added to 500 μL of lysate in quadruplicate for controls. After 15 minute incubation, desthiobiotin-ATP acylphosphate probe is added to each sample to a final concentration of 5 μM and incubated with the samples for 10 minutes. […]
(§3) Data collection: Enriched peptide samples are analyzed by LC-MS/MS on a Thermo-LTQ Velos ion trap mass spectrometer using ActivX data collection methodology for A375 cells.
Data analysis: All quantitation is performed by extracting characteristic fragment ion signals from targeted MS/MS spectra and comparing signals in control and treated samples. […]

A-Raf = A-Raf (Homo sapiens (Human), UniProt P10398); assay: ActivX KiNativ A375 whole cell lysate assay; type: binding
Sequence of A-Raf (P10398 whole entry): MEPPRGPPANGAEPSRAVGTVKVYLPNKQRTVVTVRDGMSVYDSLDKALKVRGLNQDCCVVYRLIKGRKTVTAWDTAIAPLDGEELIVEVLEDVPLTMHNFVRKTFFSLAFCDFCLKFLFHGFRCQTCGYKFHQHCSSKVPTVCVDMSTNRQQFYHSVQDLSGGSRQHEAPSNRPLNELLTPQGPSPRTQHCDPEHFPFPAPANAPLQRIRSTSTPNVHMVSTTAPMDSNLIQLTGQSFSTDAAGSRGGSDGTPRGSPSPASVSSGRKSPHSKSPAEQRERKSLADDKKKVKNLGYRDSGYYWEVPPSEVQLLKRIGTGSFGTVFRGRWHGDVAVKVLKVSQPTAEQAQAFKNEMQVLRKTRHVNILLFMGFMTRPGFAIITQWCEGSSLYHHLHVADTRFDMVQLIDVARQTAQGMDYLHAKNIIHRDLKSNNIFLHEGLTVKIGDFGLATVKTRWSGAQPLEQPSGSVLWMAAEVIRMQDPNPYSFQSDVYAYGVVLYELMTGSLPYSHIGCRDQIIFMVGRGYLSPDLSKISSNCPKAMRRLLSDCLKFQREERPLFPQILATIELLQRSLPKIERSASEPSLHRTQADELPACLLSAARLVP
Protocol: as §2
(§4) Sample preparation: A375 cells from ATCC are lysed by sonication in commercially available lysis buffer, cleared by centrifugation, and the resulting supernatant gel filtered into a commercially available kinase reaction buffer containing 20 mM MnCl2. Final protein concentration of lysates are 10 mg/mL. 5 μL of each test compound is added from 100 μM, 10 μM, 1 μM, or 0.1 μM stock solutions in DMSO to 500 uL of lysate in duplicate for final concentrations of 1 μM, 0.1 μM, 0.01 μM, and 0.001 μM. 5 μL of DMSO is added to 500 μL of lysate in quadruplicate for controls. After 15 minute incubation, desthiobiotin-ATP acylphosphate probe is added to each sample to a final concentration of 5 μM and incubated with the samples for 10 minutes. Following the probe reaction, samples are prepared for targeted mass spectrum analysis using ActivX standard protocol. Briefly, samples are prepared for trypsin digestion (denature, reduce alkylate), digested with trypsin, and desthio-biotinylated peptides are enriched on streptavidin resin.
as §3
(§5) Data analysis: All quantitation is performed by extracting characteristic fragment ion signals from targeted MS/MS spectra and comparing signals in control and treated samples. ActivX software is used with manual validation/visual inspection performed as needed based on data flagging/filtering measures. All inhibition data points are visually verified, as are all data points showing variability outside of normal limits.

B-Raf (V600E) = B-Raf (V600E) (Homo sapiens (Human), UniProt P15056, V600E); assay: ActivX KiNativ A375 whole cell lysate assay; type: binding
Sequence of B-Raf (V600E) (P15056 whole entry V600E): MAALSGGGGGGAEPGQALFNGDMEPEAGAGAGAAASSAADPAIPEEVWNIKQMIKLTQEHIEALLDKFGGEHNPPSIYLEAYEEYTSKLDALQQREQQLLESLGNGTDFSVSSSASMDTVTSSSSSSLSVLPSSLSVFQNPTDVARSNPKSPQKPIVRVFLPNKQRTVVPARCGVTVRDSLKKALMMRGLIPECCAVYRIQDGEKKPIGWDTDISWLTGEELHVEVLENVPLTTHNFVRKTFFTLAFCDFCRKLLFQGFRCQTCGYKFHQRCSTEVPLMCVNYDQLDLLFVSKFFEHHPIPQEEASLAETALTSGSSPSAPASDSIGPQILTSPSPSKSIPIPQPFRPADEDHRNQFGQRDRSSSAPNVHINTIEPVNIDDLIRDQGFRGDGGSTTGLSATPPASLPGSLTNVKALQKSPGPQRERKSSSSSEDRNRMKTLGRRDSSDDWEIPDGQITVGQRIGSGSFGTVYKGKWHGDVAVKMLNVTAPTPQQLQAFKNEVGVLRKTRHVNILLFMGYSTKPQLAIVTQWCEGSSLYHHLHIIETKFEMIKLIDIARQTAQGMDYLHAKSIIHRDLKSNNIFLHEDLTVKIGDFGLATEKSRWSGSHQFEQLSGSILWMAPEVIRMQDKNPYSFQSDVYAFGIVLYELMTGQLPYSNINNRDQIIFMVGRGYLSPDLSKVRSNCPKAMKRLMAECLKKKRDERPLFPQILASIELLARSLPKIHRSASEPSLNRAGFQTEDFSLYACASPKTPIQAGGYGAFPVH
Protocol: as §2, §4, §3, §5

C-Raf = C-Raf (Homo sapiens (Human), UniProt P04049); assay: ActivX KiNativ A375 whole cell lysate assay; type: binding
Sequence of C-Raf (P04049 whole entry): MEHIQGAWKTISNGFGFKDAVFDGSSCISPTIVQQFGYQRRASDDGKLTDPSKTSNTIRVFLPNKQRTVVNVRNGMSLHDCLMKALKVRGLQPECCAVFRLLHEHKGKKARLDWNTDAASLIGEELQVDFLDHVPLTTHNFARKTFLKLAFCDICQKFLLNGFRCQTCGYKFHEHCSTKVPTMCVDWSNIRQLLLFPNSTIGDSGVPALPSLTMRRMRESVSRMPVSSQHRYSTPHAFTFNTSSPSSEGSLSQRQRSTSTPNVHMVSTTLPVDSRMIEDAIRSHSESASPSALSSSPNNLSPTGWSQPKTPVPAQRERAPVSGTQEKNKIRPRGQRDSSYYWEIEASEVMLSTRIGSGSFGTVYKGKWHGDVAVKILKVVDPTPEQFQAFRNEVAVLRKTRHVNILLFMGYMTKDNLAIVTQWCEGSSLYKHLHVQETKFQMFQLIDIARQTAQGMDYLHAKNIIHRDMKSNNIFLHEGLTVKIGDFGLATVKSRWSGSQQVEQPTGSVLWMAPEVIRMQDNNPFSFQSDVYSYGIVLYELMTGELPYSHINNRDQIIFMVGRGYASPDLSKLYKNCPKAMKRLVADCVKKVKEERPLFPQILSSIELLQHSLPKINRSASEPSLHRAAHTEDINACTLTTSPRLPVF
Protocol: as §2, §4, §3, §5

[7] = twice a day at 12 mg/kg or thrice per day at 8 or 12 mg/kg

| SMILES | IC50 [1] [nM] | IC50 (A375res cells [3]; read-out: absolute IC50 values) [nM] | IC50 shift A375 to A375res (A375res cells [5]) | IC50 (A375res cells [3]; read-out: IC50 proliferation) [nM] | IC50 [6] [nM] | IC50 (A-Raf) [nM] | IC50 (B-Raf (V600E); first B-Raf (V600E) column) [nM] | IC50 (B-Raf (V600E); second B-Raf (V600E) column) [nM] | IC50 (C-Raf) [nM] | inhibition in vivo at 20 mg/kg [2] [%] | IC50 (A375 cells) [nM] | also measured |
| --- | --- | --- | --- | --- | --- | --- | --- | --- | --- | --- | --- | --- |
| Cc1cc(F)c(NC(=O)NCCC(C)(C)F)cc1-c1cc2cnc(N)cc2nc1C [Example 79, 1-(5-(7-amino-2-methyl-1,6-naphthyridin-3-yl)-2-fluoro-4-methylphenyl)-3-(3-fluoro-3-methylbutyl)urea] | 2 to 96 | 9 to 504 | 0.5-4.9 fold | – | – | – | – | – | – | 87 | – | tumor growth (A375 xenograft tumor; twice a day at 15 or 30 mg/kg): tumor growth inhibition; animal body weight loss ([4]; twice a day at 15 or 30 mg/kg): minimal animal body weight loss |
| CNc1cc2nc(C)c(-c3cc(NC(=O)NCCC(C)(C)C)c(F)cc3F)cc2cn1 [Example 18, 1-(2,4-difluoro-5-(2-methyl-7-(methylamino)-1,6-naphthyridin-3-yl)phenyl)-3-(3,3-dimethylbutyl)urea] | 2 to 96 | – | – | – | < 170 | 31 | 35 | 37 | 20 | 93 | – | tumor growth (A375 xenograft tumor; [7]): tumor growth inhibition; animal body weight loss [4, 7]: minimal animal body weight loss |
| CNc1cc2nc(C)c(-c3cc(NC(=O)NCCC(C)(C)F)c(F)cc3C)cc2cn1 [Example 76, 1-(3-fluoro-3-methylbutyl)-3-(2-fluoro-4-methyl-5-(2-methyl-7-(methylamino)-1,6-naphthyridin-3-yl)phenyl)urea] | 2 to 96 | 9 to 504 | 0.5-4.9 fold | – | < 170 | 120 | 16 | 22 | 170 | – | – | tumor growth (A375 xenograft tumor; twice a day at 10 or 30 mg/kg): tumor growth inhibition and tumor growth regression; animal body weight loss ([4]; twice a day at 10 or 30 mg/kg): minimal animal body weight loss |

More lines, main results first:

| IC50 [1] [nM] | IC50 (A375res cells [3]; read-out: absolute IC50 values) [nM] | IC50 shift A375 to A375res (A375res cells [5]) | IC50 (A375res cells [3]; read-out: IC50 proliferation) [nM] | IC50 [6] [nM] | IC50 (A-Raf) [nM] | IC50 (B-Raf (V600E); first B-Raf (V600E) column) [nM] | IC50 (B-Raf (V600E); second B-Raf (V600E) column) [nM] | IC50 (C-Raf) [nM] | SMILES | inhibition in vivo at 20 mg/kg [2] [%] | IC50 (A375 cells) [nM] | also measured |
| --- | --- | --- | --- | --- | --- | --- | --- | --- | --- | --- | --- | --- |
| – | – | more than 57 fold | > 10000 | – | – | – | – | – | CCCS(=O)(=O)Nc1ccc(F)c(C(=O)c2c[nH]c3ncc(-c4ccc(Cl)cc4)cc23)c1F [vemurafenib, reference compound] | – | 175 | effect on pERK signal ([1]; at concentrations up to about 3 uM): stimulates the pERK signal |
| – | – | – | > 10000 | – | – | – | – | – | CCCS(=O)(=O)Nc1ccc(F)c(C(=O)c2c[nH]c3ncc(Cl)cc23)c1F [PLX4720, N-[3-(5-chloro-1H-pyrrolo[2,3-b]pyridine-3-carbonyl)-2,4-difluorophenyl]propane-1-sulfonamide, reference compound] | – | 369 | IC50 shift A375 to A375res (A375res cells [3]; 72 hour proliferation assay): more than 27 fold |
